Test results published in patent publication US11167162B2 (priority 2017, dated 2021).
Where “and” joins values, the source holds several entries; their conditions need not be identical. Equal entries are not always repeated.

Test system: Fecal coliforms
Format: cell-based

With `CC(=O)OO` [A, peroxyacetic acid] as the compound, how does the Category read?
Its Category is >1000 and <1000.
